{
  "source": "paper PMC9767854",
  "about": "“Discovery and mechanism studies of a novel ATG4B inhibitor Ebselen by drug repurposing and its anti-colorectal cancer effects in mice” (Cell & Bioscience, 2022)",
  "key": {"[1]": {"test_system": "WT and ATG4B KO HCT116", "assay": "Apoptosis detection by cleaved PARP western blot", "assay_type": "cell-based", "settings": "low or high concentrations of Ebselen; STS 2 μM; 6 h"}, "[2]": {"test_system": "CASP3", "set-up": "method as in PMID 23632366, PMID 25468037", "settings": "cited from earlier work"}, "[3]": {"test_system": "HeLa cell line", "assay": "Autophagy flux by LC3B-II western blot in HeLa", "assay_type": "cell-based", "settings": "Torin 1 2 μM, CQ 40 μM", "method": "Since ATG4B is a key protein in autophagy, the experiment on the effect of Ebselen on autophagy flux was worth proposing. First of all, we determined the most classic index LC3B for autophagy flux detection in HeLa cell line. […] A, B HeLa cells were treated with Torin 1 (2 μM) or CQ (40 μM) and detected by western blot. C, D SW620 cells were transduced with sgCon and sgATG4B lentiviruses, respectively. Then cells were treated with CQ (40 μM) and detected by western blot. E, F HCT116 were treated with Ebselen (5 and 10 μM) or CQ (40 μM) and subjected to western blot. G, H SW620 were treated with Ebselen (10 μM) or CQ (40 μM) and western blotting was carried out to detect the protein levels. I, J Immunofluorescence analysis of endogenous LC3B in HCT116 treated with Ebselen (10 μM) or CQ (40 μM). Dots numbers for LC3B were derived from counting at least 20 cells and 5 fields from three independent replicated experiments. Bar = 10 μm. K HCT116 cells were treated with 2 μM Torin 1 in the presence or absence of 10 μM Ebselen for 12 h, then the level ratio of long-lived proteins was measured by flow cytometry"}},
  "data": [
    {"smiles": "CN[C@@H]1C[C@H]2O[C@@](C)([C@@H]1OC)n1c3ccccc3c3c4c(c5c6ccccc6n2c5c31)C(=O)NC4", "note": "[Staurosporine (STS), Staurosporine]", "values": [
      {"measurement": "apoptosis (cleaved PARP)", "setting": "[1]", "value": "generation of apoptosis"}
    ]},
    {"smiles": "O=c1c2ccccc2sn1-c1ccccc1", "note": "[Ebsulfur]", "values": [
      {"measurement": "inhibition on CASP3", "setting": "[2]", "value": "clear inhibition"}
    ]},
    {"smiles": "CCC(=O)N1CCN(c2ccc(-n3c(=O)ccc4cnc5ccc(-c6cnc7ccccc7c6)cc5c43)cc2C(F)(F)F)CC1", "note": "[Torin 1]", "values": [
      {"measurement": "effect on autophagy (LC3B-II accumulation with CQ)", "setting": "[3]", "value": "autophagy inducer"}
    ]}
  ]
}
